≈ marks a conversion by molar mass, not a printed value. Entries after “also recorded” stand apart in the source; their conditions may differ. Square brackets hold non-standard residues; d marks the D form. Ends that are not written are not given here. Peptide text beside a SMILES is read from it.
How the values were obtained:
[1] = tested on: human erythrocytes; assay: Hemolytic activity (MHC), Protocol A; format: cell-based
Method: Hemoglobin release was determined spectrophotometrically at 562 nm.
In some experiments the hemolytic titer was determined as the highest 2-fold dilution of peptide that caused hemoglobin release.

[2] = tested on: Gram-negative bacteria; assay: Antibacterial activity (MIC), microtiter dilution; format: cell-based; conditions: for MIC: against Gram-negative bacteria
Method: MICs were determined by a standard microtiter dilution method in Mueller Hinton Broth (MHB). Serial dilutions of the 10× compound were added to the microtiter plates in a volume of 10 μL followed by 90 μL of bacteria for an inoculum of 5×10^5 colony-forming units (CFU)/mL. The plates were incubated at 37° C. for 24 h, and the MICs were determined as the lowest peptide concentration that inhibited growth. […]
Alternatively; minimal inhibitory concentrations were determined using a standard microtiter dilution method in a Mueller-Hinton (MH) medium. Briefly, cells were grown overnight at 37° C. in MH broth and diluted in the same medium. Serial dilutions of the peptides were added to the microtiter plates in a volume of 100 μl followed by 10 μl of bacteria for an initial cell concentration of 1×10^5 CFU/ml. Plates were incubated at 37° C. for 24 hours and MICs determined as the lowest peptide concentration that inhibited growth.

[3] = tested on: Gram-positive bacteria; conditions: gram-positive bacteria, geometric mean MIC
[4] = Peptide hydrophobicity by RP-HPLC retention; format: physicochemical; conditions: 80° C.; for change in hydrophobicity (RP-HPLC retention) relative to PVL: polar face substitution
Method: Peptide Synthesis and Purification—Syntheses of the peptides were carried out by solid-phase peptide synthesis using t-butyloxycarbonyl chemistry and MBHA (4-methylbenzhydrylamine) resin (0.97 mmol/g), followed by cleavage of the peptide from the resin as described previously (117-119). However, it is understood in the art that there are other suitable instruments and methods for automated or manual peptide synthesis that could be employed to produce the peptides described herein. Peptide purification was performed by reversed-phase high-performance liquid chromatography (RP-HPLC) on a Zorbax 300 SB-C8 column (250×9.4 mm I.D.; 6.5 μm particle size, 300 Å pore size; Agilent Technologies, Little Falls, Del.) with a linear AB gradient (0.1% acetonitrile/min) at a flow rate of 2 mL/min, where eluent A was 0.2% aqueous trifluoroacetic acid (TFA), pH 2, and eluent B was 0.2% TFA in acetonitrile, where the shallow 0.1% acetonitrile/min gradient started 12% below the acetonitrile concentration required to elute the peptide on injection of analytical sample using a gradient of 1% acetonitrile/min (113). The purity of the peptides was verified by analytical RP-HPLC as described below and further characterized by mass spectrometry and amino acid analysis. Crude and purified peptides were analyzed on an Agilent 1100 series liquid chromatograph. Runs were performed on a Zorbax 300 SB-C8 column (150×2.1 mm I.D.; 5 μm particle size, 300 Å pore size) from Agilent Technologies using a linear AB gradient (1% acetonitrile/min) and a flow rate of 0.25 mL/min, where eluent A was 0.2% aqueous TFA, pH 2, and eluent B was 0.2% TFA in acetonitrile.
Analytical RP-HPLC of Peptides—Peptides were analyzed on an Agilent 1100 series liquid chromatograph (Little Falls, Del.). Runs were performed on a Zorbax 300 SB-C8 column (150×2.1 mm I.D.; 5 μm particle size, 300 Å pore size) from Agilent Technologies using linear AB gradient (1% acetonitrile/min) and a flow rate of 0.25 ml/min, where solvent A was 0.05% aqueous TFA, pH 2 and solvent B was 0.05% TFA in acetonitrile. Temperature profiling analyses were performed in 3° C. increments, from 5° C. to 80° C.

CC[C@H](C)[C@H](NC(=O)[C@H](C)NC(=O)[C@H](CCCCN)NC(=O)[C@H](CC(C)C)NC(=O)[C@H](C)NC(=O)[C@@H](NC(=O)[C@H](Cc1c[nH]cn1)NC(=O)[C@H](CC(C)C)NC(=O)[C@@H](NC(=O)[C@@H](NC(=O)[C@H](CCCCN)NC(=O)[C@@H](C)NC(=O)[C@H](C)NC(=O)[C@H](CO)NC(=O)[C@H](CCCCN)NC(=O)[C@H](Cc1ccccc1)NC(=O)[C@@H](NC(=O)[C@H](CCCCN)NC(=O)[C@H](CC(C)C)NC(=O)[C@H](Cc1ccccc1)NC(=O)[C@H](CO)NC(=O)[C@H](CCCCN)NC(=O)[C@H](Cc1c[nH]c2ccccc12)NC(=O)[C@H](CCCCN)NC(C)=O)[C@@H](C)O)[C@@H](C)O)C(C)C)[C@@H](C)O)C(=O)N[C@@H](CO)C(=O)N[C@@H](CO)C(N)=O [NAD] (HELM PEPTIDE1{[ac].K.W.K.S.F.L.K.T.F.K.S.A.[dA].K.T.V.L.H.T.A.L.K.A.I.S.S.[am]}$$$$V2.0)
fold decrease in hemolytic activity relative to L-diastereomer [1]: 8 fold | minimal hemolytic concentration (MHC) ([1]; red cells of human, 12 h): 250 µg/mL

CC[C@H](C)[C@H](NC(=O)[C@H](C)NC(=O)[C@H](CCCCN)NC(=O)[C@H](CC(C)C)NC(=O)[C@H](C)NC(=O)[C@@H](NC(=O)[C@H](Cc1cnc[nH]1)NC(=O)[C@H](CC(C)C)NC(=O)[C@@H](NC(=O)[C@@H](NC(=O)[C@H](CCCCN)NC(=O)[C@H](CCCCN)NC(=O)[C@H](C)NC(=O)[C@H](CO)NC(=O)[C@H](CCCCN)NC(=O)[C@H](Cc1ccccc1)NC(=O)[C@@H](NC(=O)[C@H](CCCCN)NC(=O)[C@H](CC(C)C)NC(=O)[C@H](Cc1ccccc1)NC(=O)[C@H](CO)NC(=O)[C@H](CCCCN)NC(=O)[C@H](Cc1c[nH]c2ccccc12)NC(=O)[C@H](CCCCN)NC(C)=O)[C@@H](C)O)[C@@H](C)O)C(C)C)[C@@H](C)O)C(=O)N[C@@H](CO)C(=O)N[C@@H](CO)C(N)=O [NKL]
fold decrease in hemolytic activity relative to V681 [1]: > 32 fold | minimal hemolytic concentration (MHC) ([1]; human erythrocytes): undetectable level; also recorded: no detectable hemolytic activity | MIC [2]: 3.1 µg/mL (≈ 1.04 µM)

CC[C@H](C)[C@H](NC(=O)[C@H](C)NC(=O)[C@H](CCCCN)NC(=O)[C@H](CC(C)C)NC(=O)[C@H](C)NC(=O)[C@@H](NC(=O)[C@H](Cc1c[nH]cn1)NC(=O)[C@H](CC(C)C)NC(=O)[C@@H](NC(=O)[C@@H](NC(=O)[C@H](CCCCN)NC(=O)[C@@H](NC(=O)[C@H](C)NC(=O)[C@@H](CO)NC(=O)[C@H](CCCCN)NC(=O)[C@H](Cc1ccccc1)NC(=O)[C@@H](NC(=O)[C@H](CCCCN)NC(=O)[C@H](CC(C)C)NC(=O)[C@H](Cc1ccccc1)NC(=O)[C@H](CO)NC(=O)[C@H](CCCCN)NC(=O)[C@H](Cc1c[nH]c2ccccc12)NC(=O)[C@H](CCCCN)NC(C)=O)[C@@H](C)O)C(C)C)[C@@H](C)O)C(C)C)[C@@H](C)O)C(=O)N[C@@H](CO)C(=O)N[C@@H](CO)C(N)=O [PSD] (HELM PEPTIDE1{[ac].K.W.K.S.F.L.K.T.F.K.[dS].A.V.K.T.V.L.H.T.A.L.K.A.I.S.S.[am]}$$$$V2.0; N-terminus and C-terminus assumed)
improvement in antimicrobial activity compared to V681 [3]: 2.7 fold

CC[C@H](C)[C@H](NC(=O)[C@H](C)NC(=O)[C@H](CCCCN)NC(=O)[C@H](CC(C)C)NC(=O)[C@H](C)NC(=O)[C@@H](NC(=O)[C@H](Cc1c[nH]cn1)NC(=O)[C@H](CC(C)C)NC(=O)[C@@H](NC(=O)[C@@H](NC(=O)[C@H](CCCCN)NC(=O)[C@@H](NC(=O)[C@H](C)NC(=O)[C@H](NC(=O)[C@H](CCCCN)NC(=O)[C@H](Cc1ccccc1)NC(=O)[C@@H](NC(=O)[C@H](CCCCN)NC(=O)[C@H](CC(C)C)NC(=O)[C@H](Cc1ccccc1)NC(=O)[C@H](CO)NC(=O)[C@H](CCCCN)NC(=O)[C@H](Cc1c[nH]c2ccccc12)NC(=O)[C@H](CCCCN)NC(C)=O)[C@@H](C)O)C(C)C)C(C)C)[C@@H](C)O)C(C)C)[C@@H](C)O)C(=O)N[C@@H](CO)C(=O)N[C@@H](CO)C(N)=O [PVD] (HELM PEPTIDE1{[ac].K.W.K.S.F.L.K.T.F.K.[dV].A.V.K.T.V.L.H.T.A.L.K.A.I.S.S.[am]}$$$$V2.0)
fold decrease in hemolytic activity relative to L-diastereomer [1]: 16 fold | minimal hemolytic concentration (MHC) ([1]; red cells of human, 12 h): 125 µg/mL

Ac-KWKSFLKTFKSAAKTVLHTALKAISS-NH2 [NAL]
minimal hemolytic concentration (MHC) ([1]; red cells of human, 12 h): 31.2 µg/mL

Ac-KWKSFLKTFKSALKTVLHTALKAISS-NH2 [NLL]
minimal hemolytic concentration (MHC) ([1]; red cells of human, 12 h): 7.8 µg/mL | MIC [2]: 12.7 µg/mL

Ac-KWKSFLKTFKVAVKTVLHTALKAISS-NH2 [PVL]
minimal hemolytic concentration (MHC) ([1]; red cells of human, 12 h): 7.8 µg/mL

NSL: V681 analog, L-Ser at position 13 (non-polar face) (KWKSFLKTFKSASKTVLHTALKAISS)
change in hydrophobicity (RP-HPLC retention) relative to NVL ([4]; non-polar face substitution): -8.21 min

PAL: V681 analog, L-Ala at position 11 (polar face) (KWKSFLKTFKAAVKTVLHTALKAISS)
change in hydrophobicity (RP-HPLC retention) relative to PVL [4]: +0.45 min

PKD: V681 analog, D-Lys at position 11 (KWKSFLKTFK[dK]AVKTVLHTALKAISS-NH2)
improvement on the average MIC value compared to V681 ([2]; geometric mean of 6 gram-negative strains): 3.4 fold

PKL: V681 analog, L-Lys at position 11 (polar face) (KWKSFLKTFKKAVKTVLHTALKAISS)
change in hydrophobicity (RP-HPLC retention) relative to PVL [4]: -2.29 min

From US20100099614A1, “Antimicrobial Peptides and Methods of Use” (priority 2008, published 2010)
